One data set deals with T1, p38α (Homo sapiens, UniProt Q16539).
T1 construct: human recombinant p38α, β, γ, or δ protein kinases (active full-length) were acquired from SignalChem; purchased SignalChem
Kind of data set: In vitro kinase assay using ADP-Glo, p38α. It counts as biochemical. To be noted: cell-free. Here is the method: (§1) Therefore, we attempted to screen p38γ inhibitors from […] by performing an in vitro kinase assay using ADP-Glo as readout for activated p38 isoforms.
(§2) To identify p38γ inhibitors using in vitro kinase assay, a library of kinase inhibitors was screened. The library consists of 244 compounds on three plates (EMD Cat#539744, #539745 and #539746) that are mostly ATP mimics. […] For biochemical screening, in vitro kinase assays were performed using an ADP-Glo kit (Promega, Madison, WI) according to the manufacture’s protocol. […] Briefly, for in vitro assay experiments, human recombinant p38α, β, γ, or δ protein kinases (active full-length) were acquired from SignalChem, and the assay was performed followed protocols from the company. […] Then, ADP-Glo Reagent was incubated in the mixture at room temperature for 40 min, followed by incubation of Kinase Detection Reagent for another 30 min. IC50 values were determined using CalcuSyn software (Biosoft, Cambridge, United Kingdom).

Data set [1] concerns CTCL. Kind of data set: Efficacy in CTCL (IC50s quoted in the discussion). It counts as cell-based.
The test system of data set [2] is previously treated chronic lymphocytic leukemia or lymphocytic lymphoma. Further details: method as in NCT00058240. To be noted: ref NCT00058240, cited from earlier work.
The subject of data set [3] is newly diagnosed acute myeloid leukemia. Also noted: method as in NCT00795002. To be noted: ref NCT00795002, cited from earlier work.
Data set [4] has as its system relapsed or refractory acute myeloid leukemia. Also noted: method as in NCT00634244. To be noted: combination chemotherapy regimen, not given; ref NCT00634244; cited from earlier work.
Data set [5] has as its system advanced stomach or gastro-esophageal junction cancer. Also noted: method as in NCT00991952. To be noted: irinotecan hydrochloride with or without alvocidib; ref NCT00991952; cited from earlier work.
Data set [6] has as its system relapsed or refractory mantle cell lymphoma (MCL) and diffuse large B-cell lymphoma (DLBCL). Further details: method as in NCT00445341. To be noted: flavopiridol, ref NCT00445341, cited from earlier work.
Data set [7] deals with newly diagnosed acute myeloid leukemia. Also noted: method as in NCT01349972. To be noted: alvocidib, cytarabine, and mitoxantrone hydrochloride; ref NCT01349972; cited from earlier work.
Data set [8] deals with advanced ovarian epithelial cancer or primary peritoneal cancer. Also noted: method as in NCT00083122. To be noted: cisplatin together with flavopiridol, ref NCT00083122, cited from earlier work.
Data set [9] deals with newly diagnosed acute myeloid leukemia. Further details: method as in NCT00407966. To be noted: alvocidib together with cytarabine and mitoxantrone; ref NCT00407966; cited from earlier work.
Data set [10] deals with refractory metastatic pancreatic cancer. Also noted: method as in NCT00331682. To be noted: docetaxel followed by flavopiridol; ref NCT00331682; cited from earlier work.
Data set [11] deals with lymphoma or multiple myeloma. Further details: method as in NCT00112723. To be noted: flavopiridol, trial terminated (administratively complete); ref NCT00112723; cited from earlier work.
The next data set concerns the target T2, p38δ (Homo sapiens, UniProt O15264).
T2 construct: human recombinant p38α, β, γ, or δ protein kinases (active full-length) were acquired from SignalChem; purchased SignalChem
T2 sequence (O15264 1-365): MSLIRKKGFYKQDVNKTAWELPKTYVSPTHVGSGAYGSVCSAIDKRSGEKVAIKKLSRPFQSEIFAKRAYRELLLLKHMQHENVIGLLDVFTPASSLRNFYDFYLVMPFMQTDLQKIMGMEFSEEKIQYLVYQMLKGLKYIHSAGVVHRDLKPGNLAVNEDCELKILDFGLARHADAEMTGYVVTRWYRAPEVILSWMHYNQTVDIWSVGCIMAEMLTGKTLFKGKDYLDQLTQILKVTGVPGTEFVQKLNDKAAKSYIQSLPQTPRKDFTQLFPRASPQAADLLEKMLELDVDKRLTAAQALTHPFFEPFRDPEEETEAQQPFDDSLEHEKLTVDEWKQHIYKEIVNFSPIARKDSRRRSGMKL
Put plainly: In vitro kinase assay using ADP-Glo, p38δ. It counts as biochemical. To be noted: cell-free. Here is the method: as §1, §2
A general note: ADP-Glo turns the ADP formed in a reaction into a luminescent signal.

In a further data set the test system is Hut78 CTCL cells. Kind of data set: cells. It counts as cell-based. To be noted: Homo sapiens. Here is the method: Cell viability was calculated by diluting cell suspensions 1:1 in 0.4% Trypan Blue solution (Sigma, St. Louis, MO) and counting the number of viable cells using a TC20™ automated cell counter (Bio-Rad, Irvine, CA) which automatically excludes the number of non-viable cells stained with trypan blue per total cells. CellTiterGlo Cell Viability Assay (Promega) method was used as described previously. All data points are an average of triplicate experiments.
CellTiterGlo Cell Viability Assay (Promega) was used to measure viability of Hut78 CTCL cells. […] using an automated BMG PHERAstar plate reader (BMG Labtech, Ortenberg, Germany). IC50 values were determined using CalcuSyn software. All experiments were repeated in three independent experiments and data represented are the average of triplicate experiments.

The target in the next data set is T3, p38γ (Homo sapiens, UniProt P53778).
T3 construct: human recombinant p38α, β, γ, or δ protein kinases (active full-length) were acquired from SignalChem; purchased SignalChem
T3 sequence (P53778 1-367): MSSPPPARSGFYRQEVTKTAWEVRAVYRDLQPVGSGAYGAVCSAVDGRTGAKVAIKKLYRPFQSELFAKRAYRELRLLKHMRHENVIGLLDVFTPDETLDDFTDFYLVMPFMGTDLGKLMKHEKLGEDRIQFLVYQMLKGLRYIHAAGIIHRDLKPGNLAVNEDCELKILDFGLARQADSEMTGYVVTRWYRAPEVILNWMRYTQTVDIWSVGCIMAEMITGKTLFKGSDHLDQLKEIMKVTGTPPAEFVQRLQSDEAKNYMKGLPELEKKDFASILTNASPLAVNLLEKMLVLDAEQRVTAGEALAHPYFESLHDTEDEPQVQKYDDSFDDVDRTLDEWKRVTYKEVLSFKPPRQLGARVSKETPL
Put plainly: In vitro kinase assay using ADP-Glo, p38γ. To be noted: for inhibition of p38γ kinase activity (in words): drugs targeting CDK9, Appendix A Figure 7. The class given is biochemical. Here is the method:
as §1, §2

In a further data set the test system is Hut78 cells. Put plainly: Combination treatment of FVP and niclosamide, MTS, CI by CompuSyn. The class given is cell-based. To be noted: 72 hours.
Data set [12] concerns CTCL. Also noted: method as in printed at the place. To be noted: authors' previous studies of F7, no ref printed at the place, read-out: IC50, efficacy in CTCL; cited from earlier work.
Setting [13] is: arm 1, alvocidib with cytarabine and mitoxantrone.
[14] abbreviates: arm 2, alvocidib with cytarabine and mitoxantrone.
Where [15] appears, read: HuT78, read-out: Cytotoxicity IC50, Hut78 CTCL cells.

This is an account of results in PMC8248901 (Journal of clinical haematology, 2021).

Read-outs that look alike come from different tables or passages of the source. A value given as a limit tells only on which side of the number the result lay.

T1 sequence (Q16539 whole entry): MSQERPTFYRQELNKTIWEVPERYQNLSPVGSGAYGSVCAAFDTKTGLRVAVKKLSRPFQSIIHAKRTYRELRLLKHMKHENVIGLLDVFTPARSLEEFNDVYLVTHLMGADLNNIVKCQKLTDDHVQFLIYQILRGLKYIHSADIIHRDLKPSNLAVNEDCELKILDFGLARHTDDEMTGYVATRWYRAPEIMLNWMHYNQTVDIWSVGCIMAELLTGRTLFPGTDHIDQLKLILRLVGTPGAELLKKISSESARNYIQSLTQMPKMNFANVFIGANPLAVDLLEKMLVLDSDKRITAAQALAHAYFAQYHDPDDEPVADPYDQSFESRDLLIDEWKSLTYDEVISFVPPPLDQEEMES

Take `CN1CC[C@H](c2c(O)cc(O)c3c(=O)cc(-c4ccccc4Cl)oc23)[C@H](O)C1` [FVP, Flavopiridol]: the concentration for half-maximal inhibition (IC50) at p38α is 1.34 µM; with CTCL [1], 0.12 µM; on p38δ it was 0.45 µM; in the data set with Hut78 CTCL cells (setting [15]), 0.094 µM; in the data set with Hut78 CTCL cells (HuT78, read-out: Cytotoxicity IC50, Hut78 cells, abstract), below 0.1 µM. Besides, the ORR in data set [2] (flavopiridol) is 21/52. The serious adverse events in [2] (highest dose group) is reported as 1/16; in [2] (lower dose group) it was 11/42; in [5], 6/13; in [6] (patients affected/total), 14/28; in data set [7], 53/114; in data set [8], 23/45. The serious adverse events in [9] is 19/45; in [10], 9/9. Also, the Serious adverse event was 8/39 in [3] (setting [13]), 8/39 in data set [3] (setting [14]) and 36/36 in [4]. The complete response is recorded as 24/37 in [3] (setting [13]); 29/37 in [3] (setting [14]); “no complete response” in data set [6]; 76/109 in [7]; 1 in data set [8] (out of 45 patients). Further, in data set [4], the complete remission is given as 10/36. The results for the partial response in data set [5], in data set [6] (patients responding/evaluated) and in data set [11] were 1/13, 2/26 and 6/43 partial response, respectively. Further, the results for the stable disease in [5] and in data set [10] were 4/13 and 3/9, respectively. In addition, the partial responses in data set [8] (out of 45 patients) is given as 8. In addition, in data set [8], the “Median OS” value was 17.5 months. In [8], the “median time to progression” value is 4.3 months. The median overall survival in data set [10] is on record as 4.2 months. In [10], the “median time to disease progression” value is 8 weeks.
Consider `O=c1c(O)c(-c2cc(O)c(O)c(O)c2)oc2cc(O)cc(O)c12` [Myricetin], for which the IC50 was found to be 1.6 µM against p38γ (cell-free, ADP-Glo) and 19.2 µM with Hut78 CTCL cells (setting [15]). Moreover, the “targets p38δ isoform (in words)” value on p38δ is “targets three isoforms except p38δ”.
With `CN1CCC(c2c(O)cc(O)c3c(=O)cc(-c4ccccc4Cl)oc23)C1CO` (centres unmarked) [P276-00], the “inhibition of p38γ kinase activity (in words)” value at p38γ is reported as “inhibit p38γ kinase activity”.
Take `O=C(Nc1ccc([N+](=O)[O-])cc1Cl)c1cc(Cl)ccc1O` [niclosamide]: the figures for the CI in the data set on Hut78 cells (FVP 60.0 nM + Nic 0.2 μM (200 nM)) and in the data set with Hut78 cells (FVP 240.0 nM + Nic 0.2 μM (200 nM)) were 0.6 and 0.7, respectively.
For the compound `Cc1ccc([N+](=O)[O-])cc1S(=O)(=O)N(C)/N=C/c1cnc2ccc(Br)cn12` [F7], the “inhibition of p38γ kinase activity (in words)” value at p38γ is on record as “inhibit p38γ kinase activity”. The IC50 in the data set with CTCL [12] is 0.029 to 0.033 µM.

What is called IC50 is the concentration that gives 50% inhibition.
